Where a name gives a salt, the structure may show the parent alone.
What follows are compounds tested on Bacillus megaterium strain H491 (assay: Chemical sensitivity, Biolog Phenotypic Microarray). Settings: not given.
Type: cell-based

Q: How did the “H491 susceptible to compound” value turn out when `O=C([O-])c1ccccc1O.[Na+]` [Salicylate, sodium] was run?
A: The value was “susceptible”.

Q: For `O=NO` [Sodium Nitrite], which “H491 susceptible to compound” value is on record?
A: Its value is “susceptible”.

Same assay, conditions: Biolog Phenotypic Microarray, 25° C.

Q: Which “H491 susceptible to compound” value does the source give for `N[C@@H](CC(=O)NO)C(=O)O` [L-Aspartic-b-hydroxamate] here?
A: The value was “susceptible”.

Q: `CCCCCCCCCCCC[N+](C)(C)CCCS(=O)(=O)[O-]` [Lauryl sulfobetaine, N-Dodecyl-N,N-dimethyl-3-ammonio-1-propanesulfonate] was tested. Which “H491 susceptible to compound” value did it give?
A: Its value is “susceptible”.

Q: With `CCN(CC)CC(=O)Nc1c(C)cccc1C` [Lidocaine] as the compound, how does the “H491 susceptible to compound” value read?
A: The value was “susceptible”.

Q: With `CCC[C@@H]1C[C@@H](C(=O)N[C@@H]([C@H]2O[C@H](SC)[C@H](O)[C@@H](O)[C@H]2O)[C@@H](C)O)N(C)C1` [Lincomycin] as the compound, how does the “H491 susceptible to compound” value read?
A: Its value is “susceptible”.

Q: `[Cl-].[Li+]` [Lithium chloride] was tested. Which “H491 susceptible to compound” value did it give?
A: The value was “susceptible”.

Q: How did the “H491 susceptible to compound” value turn out when `CC1(S(=O)(=O)[O-])CC(=O)c2ccccc2C1=O.[Na+]` (stereo not shown) [Menadione, sodium bisulfite] was run?
A: The value was “susceptible”.

Q: With `C[n+]1ccc(-c2cc[n+](C)cc2)cc1` [Methyl viologen] as the compound, how does the “H491 susceptible to compound” value read?
A: The value was “susceptible”.

Q: `CCCCCCCC[N+](C)(CCCCCCCC)CCCCCCCC.[Cl-]` [Methyltrioctylammonium chloride] was tested. Which “H491 susceptible to compound” value did it give?
A: The value was “susceptible”.

Q: With `CCOc1ccc2ccccc2c1C(=O)N[C@@H]1C(=O)N2[C@@H]1SC(C)(C)[C@@H]2C(=O)O` [Nafcillin] as the compound, how does the “H491 susceptible to compound” value read?
A: Its value is “susceptible”.

Q: Which “H491 susceptible to compound” value does the source give for `CCn1cc(C(=O)O)c(=O)c2ccc(C)nc21` [Nalidixic acid] here?
A: The value was “susceptible”.

Q: How did the “H491 susceptible to compound” value turn out when `CO[C@@H]1[C@@H](OC(N)=O)[C@@H](O)[C@H](Oc2ccc3c(O)c(NC(=O)c4ccc(O)c(CC=C(C)C)c4)c(=O)oc3c2C)OC1(C)C` [Novobiocin] was run?
A: Its value is “susceptible”.

Q: `CO[C@H]1C[C@H](O[C@H]2[C@H](C)[C@@H](O[C@@H]3O[C@H](C)C[C@H](N(C)C)[C@H]3O)[C@@H](C)C[C@@]3(CO3)C(=O)[C@H](C)[C@@H](O)[C@@H](C)[C@@H](C)OC(=O)[C@@H]2C)O[C@@H](C)[C@@H]1O` [Oleandomycin, phosphate salt] was tested. Which “H491 susceptible to compound” value did it give?
A: The value was “susceptible”.

Q: With `Cc1ncc([N+](=O)[O-])n1CC(O)CCl` (stereo not shown) [Ornidazole] as the compound, how does the “H491 susceptible to compound” value read?
A: Its value is “susceptible”.

Q: For `Cc1ccccc1C(OCCN(C)C)c1ccccc1` (stereo not shown) [Orphenadrine], which “H491 susceptible to compound” value is on record?
A: The value was “susceptible”.

Q: With `Cc1onc(-c2ccccc2)c1C(=O)N[C@@H]1C(=O)N2[C@@H]1SC(C)(C)[C@@H]2C(=O)O` [Oxacillin] as the compound, how does the “H491 susceptible to compound” value read?
A: The value was “susceptible”.

Q: For `CC1=C(C(=O)Nc2ccccc2)S(=O)(=O)CCO1` [Oxycarboxin], which “H491 susceptible to compound” value is on record?
A: The value was “susceptible”.

Q: With `NC[C@@H]1O[C@H](O[C@H]2[C@@H](O)[C@H](O[C@@H]3[C@@H](O)[C@H](N)C[C@H](N)[C@H]3O[C@H]3O[C@H](CO)[C@@H](O)[C@H](O)[C@H]3N)O[C@@H]2CO)[C@H](N)[C@@H](O)[C@@H]1O` [Paromomycin] as the compound, how does the “H491 susceptible to compound” value read?
A: Its value is “susceptible”.

Q: With `O=C1C=C2C(=CCOC2O)O1` (stereo not shown) [Patulin] as the compound, how does the “H491 susceptible to compound” value read?
A: The value was “susceptible”.

Q: `CC1(C)S[C@@H]2[C@H](NC(=O)Cc3ccccc3)C(=O)N2[C@H]1C(=O)O` [Penicillin G] was tested. Which “H491 susceptible to compound” value did it give?
A: The value was “susceptible”.

Q: With `Oc1c(Cl)c(Cl)c(Cl)c(Cl)c1Cl` [Pentachlorophenol] as the compound, how does the “H491 susceptible to compound” value read?
A: The value was “susceptible”.

Q: How did the “H491 susceptible to compound” value turn out when `CC(Oc1ccccc1)C(=O)N[C@@H]1C(=O)N2[C@@H]1SC(C)(C)[C@@H]2C(=O)O` (stereo partly shown) [Phenethicilllin] was run?
A: The value was “susceptible”.

Q: How did the “H491 susceptible to compound” value turn out when `CC1=CC(=O)c2c(O)cccc2C1=O` [Plumbagin] was run?
A: Its value is “susceptible”.

Q: Which “H491 susceptible to compound” value does the source give for `O=[Te]([O-])[O-].[K+].[K+]` [Potassium tellurite] here?
A: Its value is “susceptible”.

Q: Which “H491 susceptible to compound” value does the source give for `OC(CCN1CCCCC1)(c1ccccc1)c1ccccc1` [Pridinol] here?
A: Its value is “susceptible”.

Q: `Nc1ccc2cc3ccc(N)cc3nc2c1` [Proflavine] was tested. Which “H491 susceptible to compound” value did it give?
A: Its value is “susceptible”.

Q: `CC(CN1c2ccccc2Sc2ccccc21)N(C)C` (stereo not shown) [Promethazine] was tested. Which “H491 susceptible to compound” value did it give?
A: The value was “susceptible”.

Q: `COc1ccc(C[C@H](N)C(=O)N[C@H]2[C@@H](O)[C@H](n3cnc4c(N(C)C)ncnc43)O[C@@H]2CO)cc1` [Puromycin] was tested. Which “H491 susceptible to compound” value did it give?
A: The value was “susceptible”.

Q: Which “H491 susceptible to compound” value does the source give for `CO[C@H]1/C=C/O[C@@]2(C)Oc3c(C)c([O-])c4c(O)c(cc(O)c4c3C2=O)NC(=O)/C(C)=C\C=C\[C@H](C)[C@H](O)[C@@H](C)[C@@H](O)[C@@H](C)[C@H](OC(C)=O)[C@@H]1C.[Na+]` [Rifamycin SV] here?
A: Its value is “susceptible”.

Q: `C[n+]1cc2c3c(ccc2c2ccc4cc5c(cc4c21)OCO5)OCO3` [Sanguinarine chloride] was tested. Which “H491 susceptible to compound” value did it give?
A: The value was “susceptible”.

Q: `NNC(N)=O` [Semicarbazide hydrochloride] was tested. Which “H491 susceptible to compound” value did it give?
A: The value was “susceptible”.

Q: How did the “H491 susceptible to compound” value turn out when `CN[C@@H]1[C@@H](O)[C@@H](O[C@@H]2[C@@H](O)[C@H](O[C@H]3OC(CN)=CC[C@H]3N)[C@@H](N)C[C@H]2N)OC[C@]1(C)O` [Sisomicin] was run?
A: Its value is “susceptible”.

Q: How did the “H491 susceptible to compound” value turn out when `O=[As]O` [Sodium Arsenite] was run?
A: The value was “susceptible”.

Q: `CCCCCCCC(=O)[O-].[Na+]` [Sodium Caprylate] was tested. Which “H491 susceptible to compound” value did it give?
A: Its value is “susceptible”.

Q: `N#CO` [Sodium Cyanate] was tested. Which “H491 susceptible to compound” value did it give?
A: The value was “susceptible”.

Q: `[Na+].[Na+].[O]=[Cr](=[O])([O-])[O][Cr](=[O])(=[O])[O-]` [Sodium Dichromate] was tested. Which “H491 susceptible to compound” value did it give?
A: The value was “susceptible”.

Q: With `[Na+].[Na+].[O]=[W](=[O])([O-])[O-]` [Sodium Tungstate] as the compound, how does the “H491 susceptible to compound” value read?
A: The value was “susceptible”.

Q: For `O=B[O-].[Na+]` [Sodium metaborate], which “H491 susceptible to compound” value is on record?
A: Its value is “susceptible”.

Q: Which “H491 susceptible to compound” value does the source give for `[Na+].[Na+].[Na+].[O]=[V]([O-])([O-])[O-]` [Sodium orthovanadate] here?
A: The value was “susceptible”.

Q: How did the “H491 susceptible to compound” value turn out when `[Na+].[O-][I+3]([O-])([O-])[O-]` [Sodium periodate] was run?
A: The value was “susceptible”.

Q: With `Nc1ccc(S(=O)(=O)Nc2ccc(Cl)nn2)cc1` [Sulfachloropyridazine] as the compound, how does the “H491 susceptible to compound” value read?
A: Its value is “susceptible”.

Q: Which “H491 susceptible to compound” value does the source give for `Nc1ccc(S(=O)(=O)Nc2ncccn2)cc1` [Sulfadiazine] here?
A: Its value is “susceptible”.

Q: With `Cc1cc(NS(=O)(=O)c2ccc(N)cc2)no1` [Sulfamethoxazole] as the compound, how does the “H491 susceptible to compound” value read?
A: The value was “susceptible”.

Q: `Nc1ccc(S(N)(=O)=O)cc1` [Sulfanilamide] was tested. Which “H491 susceptible to compound” value did it give?
A: The value was “susceptible”.

Q: Which “H491 susceptible to compound” value does the source give for `Nc1ccc(S(=O)(=O)Nc2nccs2)cc1` [Sulfathiazole] here?
A: The value was “susceptible”.

Q: Which “H491 susceptible to compound” value does the source give for `CCN(CC)C(=S)SSC(=S)N(CC)CC` [Tetraethylthiuram disulfide] here?
A: The value was “susceptible”.

Q: Which “H491 susceptible to compound” value does the source give for `c1ccc(-c2nn(-c3ccccc3)[n+](-c3cccc4ccccc34)n2)cc1` [Tetrazolium violet] here?
A: The value was “susceptible”.

Q: How did the “H491 susceptible to compound” value turn out when `CC(=O)[O-].[Tl+]` [Thallium (I) acetate] was run?
A: The value was “susceptible”.

Q: For `CS(=O)(=O)c1ccc([C@@H](O)[C@@H](CO)NC(=O)C(Cl)Cl)cc1` [Thiamphenicol], which “H491 susceptible to compound” value is on record?
A: Its value is “susceptible”.

Q: Which “H491 susceptible to compound” value does the source give for `CSc1ccc2c(c1)N(CCC1CCCCN1C)c1ccccc1S2` (stereo not shown) [Thioridazine] here?
A: Its value is “susceptible”.

Q: `O=C(O)c1ccccc1S` [Thiosalicylate] was tested. Which “H491 susceptible to compound” value did it give?
A: The value was “susceptible”.

Q: `CCS(=O)(=O)CCn1c([N+](=O)[O-])cnc1C` [Tinidazole] was tested. Which “H491 susceptible to compound” value did it give?
A: Its value is “susceptible”.

Q: Which “H491 susceptible to compound” value does the source give for `NC[C@H]1O[C@H](O[C@H]2[C@H](O)[C@@H](O[C@H]3O[C@H](CO)[C@@H](O)[C@H](N)[C@H]3O)[C@H](N)C[C@@H]2N)[C@H](N)C[C@@H]1O` [Tobramycin] here?
A: The value was “susceptible”.

Q: With `Cc1ccc(N(SC(F)(Cl)Cl)S(=O)(=O)N(C)C)cc1` [Tolylfluanid] as the compound, how does the “H491 susceptible to compound” value read?
A: Its value is “susceptible”.

Q: Which “H491 susceptible to compound” value does the source give for `CN1CCN(CCCN2c3ccccc3Sc3ccc(C(F)(F)F)cc32)CC1` [Trifluoperazine] here?
A: Its value is “susceptible”.

Q: Which “H491 susceptible to compound” value does the source give for `O=c1[nH]c(=O)n([C@H]2C[C@H](O)[C@@H](CO)O2)cc1C(F)(F)F` [Trifluorothymidine] here?
A: Its value is “susceptible”.

Q: `CO[C@H]1C[C@H](O[C@H]2[C@H](C)[C@@H](O[C@@H]3O[C@H](C)C[C@H](N(C)C)[C@H]3OC(C)=O)[C@@H](C)C[C@@]3(CO3)C(=O)[C@H](C)[C@@H](OC(C)=O)[C@@H](C)[C@@H](C)OC(=O)[C@@H]2C)O[C@@H](C)[C@@H]1OC(C)=O` [Troleandomycin] was tested. Which “H491 susceptible to compound” value did it give?
A: The value was “susceptible”.

Q: `CC[C@H]1OC(=O)C[C@@H](O)[C@H](C)[C@@H](O[C@@H]2O[C@H](C)[C@@H](O[C@H]3C[C@@](C)(O)[C@@H](O)[C@H](C)O3)[C@H](N(C)C)[C@H]2O)[C@@H](CC=O)C[C@@H](C)C(=O)/C=C/C(C)=C/[C@@H]1CO[C@@H]1O[C@H](C)[C@@H](O)[C@@H](OC)[C@H]1OC` [Tylosin] was tested. Which “H491 susceptible to compound” value did it give?
A: The value was “susceptible”.

Q: `CN[C@H](CC(C)C)C(=O)N[C@H]1C(=O)N[C@@H](CC(N)=O)C(=O)N[C@H]2C(=O)N[C@H]3C(=O)N[C@H](C(=O)N[C@H](C(=O)O)c4cc(O)cc(O)c4-c4cc3ccc4O)[C@H](O)c3ccc(c(Cl)c3)Oc3cc2cc(c3O[C@@H]2O[C@H](CO)[C@@H](O)[C@H](O)[C@H]2O[C@H]2C[C@](C)(N)[C@H](O)[C@H](C)O2)Oc2ccc(cc2Cl)[C@H]1O` [Vancomycin] was tested. Which “H491 susceptible to compound” value did it give?
A: Its value is “susceptible”.

Same assay, conditions: Biolog Phenotypic Microarray; at a maximum concentration of 4 ug

Q: Which “Resistance of H491 observed in wells containing compound” value does the source give for `NCC[C@H](O)C(=O)N[C@@H]1C[C@H](N)[C@@H](O[C@H]2O[C@H](CN)[C@@H](O)[C@H](O)[C@H]2O)[C@H](O)[C@H]1O[C@H]1O[C@H](CO)[C@@H](O)[C@H](N)[C@H]1O` [amikacin] here?
A: Its value is “Resistance”.

Reference: US10602743B2, “Method of inducing drought/salt tolerance using Bacillus megaterium” (Marrone Bio Innovations, Inc., priority 2012, dated 2020)
